We go through seven compounds from patent publication US20050107616A1, “Alpha-ketoamide derivatives as cathepsin k inhibitors” (priority 2001, published 2005).

pKi: −log10 of the molar value.

The assay has as its target T1, human cathepsin K (Homo sapiens, UniProt P43235).
T1 construct: The proform of cathepsin K was converted to mature cathepsin K by brief exposure to pH 4; made in house; host or cells: baculovirus; Trichoplusia ni High Five cells (virus raised in Sf-9)
T1 sequence (P43235 115-329): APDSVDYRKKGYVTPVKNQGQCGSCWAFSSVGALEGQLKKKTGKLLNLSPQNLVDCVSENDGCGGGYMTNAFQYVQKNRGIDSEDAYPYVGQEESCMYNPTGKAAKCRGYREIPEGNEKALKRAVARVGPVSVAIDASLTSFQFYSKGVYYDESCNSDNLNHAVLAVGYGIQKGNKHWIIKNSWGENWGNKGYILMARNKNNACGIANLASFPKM
Description: Cathepsin K inhibition assay, fluorogenic substrate Cbz-Phe-Arg-AMC, progress curve method. The settings on record: Table 1; human recombinant enzyme, pH 5.5, 30° C., 10 μM substrate; read-out: hCat K Ki. The assay is classed as biochemical. How it is done:
All assays for cathepsin K were carried out with human and rat recombinant enzyme. Assays for cathepsins S Et V were also carried out with human recombinant enzyme. Assays for human cathepsins B. H. and L were carried out with enzyme, purchased from Athens Research and Technology, Inc., prepared from human liver tissue. […] A stock substrate solution of Cbz-Phe-Arg-AMC was prepared at a concentration of 50 mM in dimethyl sulfoxide. This substrate was diluted into the assay for a final substrate concentration of 10 μM in the rat cathepsin K, human cathepsin K, and human cathepsin B assays; a final substrate concentration of 5 μM in the human cathepsin L assay; and a final substrate concentration of 2 μM in the human cathepsin V assay.
All assays contained 10% dimethyl sulfoxide. […] All assays were conducted at 30° C. Product fluorescence (excitation at 360 nm; emission at 440 nm, (except cathepsin H which used excitation at 340 nm; emission at 420 nm)) was monitored with a PerSeptive Biosystems Cytofluor II fluorescence plate reader. Product progress curves were generated over 2.3 h monitoring the formation of 7-amino-4-methylcoumarin product (or β-naphthalamide for cathepsin H).
Two liters of Spodoptera frugiperda (Sf-9) cells (ATCC) were grown in Grace's Supplemented medium (Life Technologies) supplemented with 2 g/L glucose, 10% a fetal bovine serum (HyClone) and 0.10% pluronic F-68 (Life Technologies). […] The cells continued to grow for 72 h post-infection, before the virus was harvested by centrifugation at 1400× g for 30 min.
One and one-half liters of Trichoplusia ni (T. ni) High Five (TM) cells [JRH Biosciences, Woodland, Calif. […] Media were separated from cells at a rate of 1 L/min using the Centritech 100 (TM) continuous-flow centrifuge (DuPont) operating at 200× g.
Protein Purification: Media (human and rat) were filtered through a Whatman 3 filter, and then loaded onto a 25 mL Poros HS II (26 mm×47 mm) cation exchange column equilibrated in 25 mM sodium acetate at pH 5.5 (equilibration buffer). The column was washed until the absorbance reached the baseline value, and then the protein was eluted with a linear gradient from 0-2 M sodium chloride in the equilibration buffer. Column fractions were analyzed by SDS-PAGE, N-terminal sequencing, and mass spectrometry. Fractions containing the proform of cathepsin K were pooled and frozen at −80° C. The proform was concentrated in an Amicon Centriprep 10 and fractionated with a Superdex 75 column (26 mm×600 mm, Pharmacia) equilibrated in 400 mM sodium chloride, 25 mM sodium acetate at pH 5.5.
Cathepsin K Activation: The proform of cathepsin K was converted to mature cathepsin K by brief exposure to pH 4 in the presence of 5 mM L-cysteine. Typically, 5 mM L-cysteine was added to 10 mL of approximately 1 mg/mL procathepsin K. One mL of this solution was diluted ten-fold into 450 mM sodium acetate at pH 4.0 containing 5 mM L-cysteine. This solution was reacted at 23° C. for 2 min before neutralization with 2 mL 1.8 M sodium acetate at pH 6.0. The neutralized sample was added to the remaining 9 mL of procathepsin K. The mixture was incubated at 4° C. for 2-3 days. The activated cathepsin K was chromatographed on a Poros HS II column as described above.
Potential inhibitors were evaluated using the progress curve method. Assays were carried out in the presence of variable concentrations of test compound. Reactions were initiated by addition of buffered solutions of inhibitor and substrate to enzyme. Data analysis was conducted according to one of two procedures depending on the appearance of the progress curves in the presence of inhibitors. […] Ki values were calculated from IC50 values using equation 2 assuming a competitive model. [formula]

As a reminder, the pKi is the negative decadic logarithm of the Ki, by convention in mol/L. For `CCCC[C@H](NC(=O)O[C@H](Cc1nnc(-c2ccc(C(F)(F)F)cc2)o1)C(C)(C)C)C(=O)C(=O)Nc1ccn[nH]1` [Example 3], the pKi was 9.00 to 11.00. For the compound `CCCC[C@H](NC(=O)O[C@H](Cn1cnc(-c2ccc(C(F)(F)F)cc2)c1)C(C)(C)C)C(=O)C(=O)Nc1nccs1` [Example 51, (1S)-2,2-dimethyl-1-({4-[4-(trifluoromethyl)phenyl]-1H-imidazol-1-yl}methyl)propyl(1S)-1-[oxo(1,3-thiazol-2-ylamino)acetyl]pentylcarbamate], the pKi is 7.00 to 9.00. The result for `CCCC[C@H](NC(=O)O[C@H](Cn1cnc(-c2ccccc2)c1)C(C)(C)C)C(=O)C(=O)N[C@H](C)c1ccccc1` [Example 12, (1S)-2,2-dimethyl-1-[(4-phenyl-1H-imidazol-1-yl)methyl]propyl(1S)-1-(oxo{[(1R)-1-phenylethyl]amino}acetyl)pentylcarbamate] reads 9.00 to 11.00; that for `CCCC[C@H](NC(=O)O[C@@H](Cc1nnc(-c2ccc(F)cc2)o1)C(C)(C)C)C(=O)C(=O)N[C@H](C)c1ccccc1` [Example 20, (1S)-1-{[5-(4-fluorophenyl)-1,3,4-oxadiazol-2-yl]methyl}-2,2-dimethylpropyl(1S)-1-(oxo{[(1R)-1-phenylethyl]amino}acetyl)pentylcarbamate], 5.00 to 7.00. In the case of `CCCC[C@H](NC(=O)O[C@H](Cc1nnc(-c2ccc(C(F)(F)F)cc2)o1)C(C)(C)C)C(=O)C(=O)N[C@H](C)c1ccccc1` [Example 17], the pKi was 9.00 to 11.00. In the case of `CCCC[C@H](NC(=O)O[C@H](Cc1nnc(-c2ccc(F)cc2)o1)C(C)(C)C)C(=O)C(=O)NCc1cccnc1` [Example 4, (1R)-1-{[5-(4-fluorophenyl)-1,3,4-oxadiazol-2-yl]methyl}-2,2-dimethylpropyl(1S)-1-{oxo[(3-pyridinylmethyl)amino]acetyl}pentylcarbamate], the negative-log Ki (pKi) is 7.00 to 9.00.

As for `CCCC[C@H](NC(=O)O[C@H](Cn1ccc(-c2ccncc2)n1)C(C)(C)C)C(=O)C(=O)Nc1ccn[nH]1` [Example 45, (1S)-2,2-dimethyl-1-{[3-(4-pyridinyl)-1H-pyrazol-1-yl]methyl}propyl(1S)-1-[oxo(1H-pyrazol-5-ylamino)acetyl]pentylcarbamate], the negative-log Ki (pKi) was 9.00 to 11.00.
